Assay results as given in PMC2893881 (Bioorganic & medicinal chemistry, 2010).
Read-outs that look alike come from different tables or passages of the source.

Assays:
T. brucei brucei = test: Trypanosoma brucei brucei growth inhibition assay; assay type: cell-based; details: bloodstream forms clone 427-221a, 40 hours, ATP-bioluminescence, ± standard deviation of the mean
[1] = test system: Jurkat cells (clone E6-1); test: Jurkat cell cytotoxicity assay; assay type: cell-based; details: for Selectivity Index = (IC50 Jurkat) / (IC50 T. brucei): Jurkat vs T. brucei; for IC50: read-out: IC50 (μM) Jurkat
animals = details: cited from earlier work
[2] = test system: human lung carcinoma (A549) cells; details: at 1 μM; cited from earlier work
patients = details: clinical use, second stage sleeping sickness; cited from earlier work
rhodesain = rhodesain (Trypanosoma brucei rhodesiense, UniProt Q95PM0); test: Cysteine protease inhibition assay, rhodesain; assay type: biochemical; details: for IC50 (μM) Cysteine Protease rho (rhodesain): rhodesain 4 nM, Z-Phe-Arg-AMC 10 μM, pH 5.5
TbCatB = TbCatB (Trypanosoma brucei, UniProt Q6R7Z5); test: Cysteine protease inhibition assay, TbCatB; assay type: biochemical; details: TbCatB 258 nM, Z-Phe-Arg-AMC 10 μM, pH 5.5
[3] = Jurkat cells, 40 hr, ATP-bioluminescence

CN1C(=O)[C@@]23C[C@]4([C@]56C[C@@]78SS[C@@](CO)(C(=O)N7[C@H]5Nc5ccccc56)N(C)C8=O)c5ccccc5N[C@@H]4N2C(=O)[C@]1(CO)SS3 [Compound 12, chaetocin]
IC50 (μM) T. brucei (T. brucei brucei): nanomolar activity
IC50 (μM) Jurkat [1, 3]: substantial toxicity to mammalian cells
Selectivity Index = (IC50 Jurkat) / (IC50 T. brucei) [1]: low (Toxic to Jurkat cells at <1 μM)

fumitremorgin B [Compound 19]
IC50 (T. brucei brucei; read-out: IC50 (μM) T. brucei): 19.5 ± 5.9 µM
Selectivity Index = (IC50 Jurkat) / (IC50 T. brucei) [1]: 5.3
IC50 [1, 3]: 104 µM
tremors in animals (animals): cause tremors in animals

phenylahistin [Compound 2a]
cell cycle inhibition activity [2]: cell cycle inhibition activity in the G2/M phase

COc1ccc2c3c4n(c2c1)[C@H](C=C(C)C)OOC(C)(C)C[C@@H]4N1C(=O)[C@@H]2CCCN2C(=O)[C@]1(O)[C@H]3O [Compound 17, verruculogen]
tremors in animals (animals): cause tremors in animals

Nc1nc(N)nc(Nc2ccc([As]3SCC(CO)S3)cc2)n1 (stereo not drawn) [Compound 25, melarsoprol]
mortality rate (patients): approximately 5%

CS[C@]1(CO)C(=O)N2[C@H]3C(=CC=C[C@@H]3OC(C)=O)C[C@@]2(SC)C(=O)N1C [Compound 7, 6-acetylbis(methylthio)gliotoxin]
IC50 (μM) Cysteine Protease rho (rhodesain) (rhodesain): binds to rhodesain
IC50 (μM) T. brucei (T. brucei brucei): trypanocidal in the low micromolar range
Selectivity Index = (IC50 Jurkat) / (IC50 T. brucei) [1]: > 15

CS[C@]1(CO)C(=O)N2[C@H]3C(=CC=C[C@@H]3O)C[C@@]2(SC)C(=O)N1C [Compound 3, bis(methylthio)gliotoxin]
IC50 (μM) Cysteine Protease rho (rhodesain) (rhodesain): inactivity
IC50 (μM) Jurkat [1, 3]: not being toxic
IC50 (μM) Cysteine Protease Tbc (TbcatB) (TbCatB): inactivity

CN1C(=O)[C@]23SS[C@@]1(C)C(=O)N2[C@H]1Nc2ccccc2[C@@]1([C@@]12c4ccccc4N[C@@H]1N1C(=O)[C@]4(CO)SS[C@]1(C(=O)N4C)[C@H]2O)[C@@H]3O [Compound 11, verticillin B]
IC50 (μM) T. brucei (T. brucei brucei): nanomolar activity
IC50 (μM) Jurkat [1, 3]: substantial toxicity to mammalian cells
Selectivity Index = (IC50 Jurkat) / (IC50 T. brucei) [1]: low (Toxic to Jurkat cells at <1 μM)

CS[C@]1(CO)C(=O)N2c3c(O)cccc3C[C@@]2(SC)C(=O)N1C [Compound 4, dehydrobis(methylthio)gliotoxin]
IC50 (μM) Cysteine Protease rho (rhodesain) (rhodesain): binds to rhodesain
IC50 (μM) T. brucei (T. brucei brucei): trypanocidal in the low micromolar range
Selectivity Index = (IC50 Jurkat) / (IC50 T. brucei) [1]: > 15

CN1C(=O)[C@]23CC4=CC=C[C@H](O)[C@H]4N2C(=O)[C@@]1(CO)SS3 [Compound 10, gliotoxin, reference compound]
IC50 (μM) T. brucei (T. brucei brucei): nanomolar activity
IC50 (μM) Jurkat [1, 3]: substantial toxicity to mammalian cells
Selectivity Index = (IC50 Jurkat) / (IC50 T. brucei) [1]: low ^g (Toxic to Jurkat cells at <1 μM)
IC50 (μM) Cysteine Protease Tbc (TbcatB) (TbCatB): showed inhibition of TbCatB

COc1ccc2c3c([nH]c2c1)C(C=C(C)C)N1C(=O)C2CCCN2C(=O)C1(O)C3O (stereo not drawn) [Compound 20, 12,13-dihydroxyfumitremorgin C]
IC50 (rhodesain): 10.9 µM
IC50 (μM) Cysteine Protease rho (rhodesain) (rhodesain): binds to rhodesain
IC50 (μM) T. brucei (T. brucei brucei): trypanocidal in the low micromolar range
IC50 ([1]; Homo sapiens, Jurkat, 40 h): 97.2 µM
Selectivity Index = (IC50 Jurkat) / (IC50 T. brucei) [1]: > 15

CS[C@]1(Cc2c[nH]c3ccccc23)NC(=O)[C@](CO)(SC)N(C)C1=O [Compound 8, chetoseminudin B]
IC50 (μM) Cysteine Protease rho (rhodesain) (rhodesain): inactivity
IC50 (μM) Cysteine Protease Tbc (TbcatB) (TbCatB): inactivity
